ChEMBL document CHEMBL1201862, “PubChem BioAssay data set” (2004)
Activity calls are given as the source filed them.

Tests used:
[1] = biological target: T1, Tyrosine-protein phosphatase non-receptor type 7 (Homo sapiens, UniProt P35236); assay type: functional
T1 sequence (P35236 whole entry): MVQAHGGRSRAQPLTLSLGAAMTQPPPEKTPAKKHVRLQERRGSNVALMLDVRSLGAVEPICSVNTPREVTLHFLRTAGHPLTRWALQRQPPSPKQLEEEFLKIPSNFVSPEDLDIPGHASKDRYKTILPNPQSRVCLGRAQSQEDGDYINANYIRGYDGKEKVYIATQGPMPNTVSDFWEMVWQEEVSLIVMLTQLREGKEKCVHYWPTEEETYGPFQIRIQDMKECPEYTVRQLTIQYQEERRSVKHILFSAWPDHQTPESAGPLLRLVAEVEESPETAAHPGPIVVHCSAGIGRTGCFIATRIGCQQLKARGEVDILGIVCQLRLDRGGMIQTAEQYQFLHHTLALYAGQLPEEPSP

Bcl-2-like protein 10 = biological target: T2, Bcl-2-like protein 10 (Homo sapiens, UniProt Q9HD36); assay: Bcl-B/TR3 peptide binding disruption – biochemical, fluorescence polarization, FITC-TR3 peptide, selectivity assay for Bfl-1 inhibitor project, primary screen (AID 748);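 further: fluorescence polarization from a fluorescein-labelled TR3 peptide binding purified Bcl-B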
T2 sequence (Q9HD36 whole entry): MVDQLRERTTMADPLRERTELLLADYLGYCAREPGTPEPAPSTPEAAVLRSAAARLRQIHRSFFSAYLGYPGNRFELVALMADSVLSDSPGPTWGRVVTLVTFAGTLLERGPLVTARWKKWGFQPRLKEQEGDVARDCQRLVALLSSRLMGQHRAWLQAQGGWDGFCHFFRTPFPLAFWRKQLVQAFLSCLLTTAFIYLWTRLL

[2] = biological target: Glyceraldehyde-3-phosphate dehydrogenase (Homo sapiens, UniProt P04406)
Estrogen receptor beta [3] = biological target: T3, Estrogen receptor beta (Homo sapiens, UniProt Q92731);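 further: recombinant ER-beta bound to coactivator SRC1 peptide in presence of estradiol agonist; inhibitors block coactivator peptide binding and lower the FRET signal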
Estrogen receptor beta [4] = biological target: T3, Estrogen receptor beta; assay: blockers of SRC-3 recruitment to ERβ – biochemical, ELISA, streptavidin-HRP readout, orthogonal assay, confirmation (AID 1060)
[5] = biological target: T4, Dual specificity protein phosphatase 6 (Rattus norvegicus, UniProt Q64346)
T4 sequence (Q64346 whole entry): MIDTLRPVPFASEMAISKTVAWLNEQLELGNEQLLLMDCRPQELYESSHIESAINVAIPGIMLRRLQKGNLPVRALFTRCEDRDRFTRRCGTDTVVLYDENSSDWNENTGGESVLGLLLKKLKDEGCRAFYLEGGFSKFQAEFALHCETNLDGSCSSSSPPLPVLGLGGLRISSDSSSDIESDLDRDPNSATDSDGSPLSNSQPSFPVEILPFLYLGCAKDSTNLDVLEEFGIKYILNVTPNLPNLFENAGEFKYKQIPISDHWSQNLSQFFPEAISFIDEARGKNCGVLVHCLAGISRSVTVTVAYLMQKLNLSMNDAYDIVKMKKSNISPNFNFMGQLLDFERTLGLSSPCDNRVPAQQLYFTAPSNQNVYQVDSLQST

[6] = biological target: T4, Dual specificity protein phosphatase 6; assay type: functional
[7] = biological target: T5, Carboxy-terminal domain RNA polymerase II polypeptide A small phosphatase 1 (Homo sapiens, UniProt Q9GZU7); assay: CTDSP1 inhibitors, concentration-response, biochemical, absorbance readout, ultra-high-throughput screen actives (AID 540297); assay type: functional
T5 sequence (Q9GZU7 whole entry): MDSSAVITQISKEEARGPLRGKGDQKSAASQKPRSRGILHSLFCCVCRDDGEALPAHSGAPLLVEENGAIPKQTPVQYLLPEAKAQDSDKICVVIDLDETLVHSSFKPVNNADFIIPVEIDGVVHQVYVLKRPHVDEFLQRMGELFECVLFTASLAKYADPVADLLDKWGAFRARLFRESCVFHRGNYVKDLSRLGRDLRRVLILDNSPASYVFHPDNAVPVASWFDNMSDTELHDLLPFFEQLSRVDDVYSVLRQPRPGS

CHO = CHO cell viability loss, potency – luminescence, cytotoxicity control for TLR9-MyD88 binding inhibitor project, dose response (AID 588339); assay type: functional, cell-based, hamster; settings: Cricetulus griseus;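 further: CHO cells stably coexpressing TLR9 and MyD88 fusions from primary screen; compound exposure lasted 48 hours before viability readout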
[8] = biological target: T6, Endoribonuclease toxin MazF (Escherichia coli K-12, UniProt P0AE70); assay: activation of MazEF endoribonuclease cleavage – biochemical, fluorescence, single-stranded RNA substrate, uHTS hits, dose response (AID 588481); assay type: functional
T6 sequence (P0AE70 whole entry): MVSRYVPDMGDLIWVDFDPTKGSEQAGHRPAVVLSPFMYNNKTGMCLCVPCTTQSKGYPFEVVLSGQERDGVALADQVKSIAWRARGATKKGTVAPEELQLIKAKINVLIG

Beta Lactamase = Beta Lactamase (Pseudomonas aeruginosa, UniProt Q932Y6); assay: BLA reporter interference, concentration series – BLA reporter cells, FRET fluorescence, artefact control for TLR9-MyD88 binding inhibitor project, dose response (AID 588341); assay type: cell-based;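 further: cell based assay in CHO-K1 cells stably expressing beta-lactamase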
[9] = biological target: T6, Endoribonuclease toxin MazF; assay: substrate-only fluorescence increase artefacts – biochemical, single-stranded RNase substrate, counter-screen for MazEF activator project, dose response (AID 588502); assay type: functional
[10] = biological target: Intestinal-type alkaline phosphatase (Mus musculus, UniProt P24822); assay: PubChem AID 488874; assay type: functional
[11] = biological target: T7, Intestinal-type alkaline phosphatase (Homo sapiens, UniProt P09923); assay: inhibition of human intestinal alkaline phosphatase – biochemical, luminescent, uHTS hits, set 2, dose response (AID 488793); assay type: functional
[12] = biological target: T7, Intestinal-type alkaline phosphatase; assay: Dose Response confirmation of uHTS hits from a small molecule inhibitors of human intestinal alkaline phosphatase via a luminescent assay. [Related pubchem assays (depositor defined):AID2544, AID2574]; assay type: functional
[13] = biological target: T8, Alkaline phosphatase, tissue-nonspecific isozyme (Homo sapiens, UniProt P05186); assay: inhibition of tissue-nonspecific alkaline phosphatase – biochemical, dose response (AID 488882); assay type: functional
T8 sequence (P05186 whole entry): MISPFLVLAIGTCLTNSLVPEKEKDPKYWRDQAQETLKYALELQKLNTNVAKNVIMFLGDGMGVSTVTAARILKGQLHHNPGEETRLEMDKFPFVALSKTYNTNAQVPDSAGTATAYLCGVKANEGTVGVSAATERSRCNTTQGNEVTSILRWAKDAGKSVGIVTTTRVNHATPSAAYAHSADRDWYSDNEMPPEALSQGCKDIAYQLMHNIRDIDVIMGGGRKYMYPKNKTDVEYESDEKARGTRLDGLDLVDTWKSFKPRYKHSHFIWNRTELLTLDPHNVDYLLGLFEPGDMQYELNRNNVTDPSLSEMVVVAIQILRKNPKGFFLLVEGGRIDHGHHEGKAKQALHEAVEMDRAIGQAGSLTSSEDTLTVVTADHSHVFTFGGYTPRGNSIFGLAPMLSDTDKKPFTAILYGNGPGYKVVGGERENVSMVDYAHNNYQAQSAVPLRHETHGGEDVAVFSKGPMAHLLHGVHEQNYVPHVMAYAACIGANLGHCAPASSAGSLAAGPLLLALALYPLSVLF

[14] = biological target: T9, Microphthalmia-associated transcription factor (Homo sapiens, UniProt O75030); assay: reducers of TRPM1 reporter luminescence, concentration series – cell-based, SK-MEL-5, cherry-picked, set 3, MITF inhibitor project, dose response (AID 493073); assay type: functional;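 further: SK-MEL-5 melanoma cells with luciferase driven by the MITF target TRPM1 promoter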
T9 sequence (O75030 whole entry): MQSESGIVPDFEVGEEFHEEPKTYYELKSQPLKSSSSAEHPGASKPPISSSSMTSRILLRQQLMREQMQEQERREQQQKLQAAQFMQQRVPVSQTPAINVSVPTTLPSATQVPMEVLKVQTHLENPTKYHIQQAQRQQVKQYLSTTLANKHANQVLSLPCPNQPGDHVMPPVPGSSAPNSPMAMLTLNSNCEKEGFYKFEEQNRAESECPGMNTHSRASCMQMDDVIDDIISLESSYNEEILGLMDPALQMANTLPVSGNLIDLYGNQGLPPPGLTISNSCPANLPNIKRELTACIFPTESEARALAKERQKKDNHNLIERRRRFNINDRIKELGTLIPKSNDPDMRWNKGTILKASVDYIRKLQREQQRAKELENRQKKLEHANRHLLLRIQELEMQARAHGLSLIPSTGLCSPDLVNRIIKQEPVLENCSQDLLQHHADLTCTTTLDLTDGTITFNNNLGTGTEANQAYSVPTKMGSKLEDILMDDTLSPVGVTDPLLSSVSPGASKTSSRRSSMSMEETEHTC

[15] = biological target: Dual specificity tyrosine-phosphorylation-regulated kinase 1A (Rattus norvegicus, UniProt Q63470); assay type: biochemical, Homo sapiens

T7 sequence (P09923 whole entry): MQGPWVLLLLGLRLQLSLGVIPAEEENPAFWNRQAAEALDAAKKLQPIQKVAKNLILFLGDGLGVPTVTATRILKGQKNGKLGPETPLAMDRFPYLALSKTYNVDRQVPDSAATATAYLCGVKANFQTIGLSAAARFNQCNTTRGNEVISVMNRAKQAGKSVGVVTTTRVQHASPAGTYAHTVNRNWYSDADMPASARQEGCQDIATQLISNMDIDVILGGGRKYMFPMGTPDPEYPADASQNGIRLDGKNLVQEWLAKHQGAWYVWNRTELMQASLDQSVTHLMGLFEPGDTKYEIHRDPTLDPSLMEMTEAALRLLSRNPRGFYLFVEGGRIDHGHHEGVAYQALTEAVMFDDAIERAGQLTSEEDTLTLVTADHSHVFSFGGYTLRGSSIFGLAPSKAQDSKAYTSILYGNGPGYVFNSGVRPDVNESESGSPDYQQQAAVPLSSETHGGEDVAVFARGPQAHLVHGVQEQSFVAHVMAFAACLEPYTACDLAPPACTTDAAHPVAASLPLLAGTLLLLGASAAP
T3 sequence (Q92731 whole entry): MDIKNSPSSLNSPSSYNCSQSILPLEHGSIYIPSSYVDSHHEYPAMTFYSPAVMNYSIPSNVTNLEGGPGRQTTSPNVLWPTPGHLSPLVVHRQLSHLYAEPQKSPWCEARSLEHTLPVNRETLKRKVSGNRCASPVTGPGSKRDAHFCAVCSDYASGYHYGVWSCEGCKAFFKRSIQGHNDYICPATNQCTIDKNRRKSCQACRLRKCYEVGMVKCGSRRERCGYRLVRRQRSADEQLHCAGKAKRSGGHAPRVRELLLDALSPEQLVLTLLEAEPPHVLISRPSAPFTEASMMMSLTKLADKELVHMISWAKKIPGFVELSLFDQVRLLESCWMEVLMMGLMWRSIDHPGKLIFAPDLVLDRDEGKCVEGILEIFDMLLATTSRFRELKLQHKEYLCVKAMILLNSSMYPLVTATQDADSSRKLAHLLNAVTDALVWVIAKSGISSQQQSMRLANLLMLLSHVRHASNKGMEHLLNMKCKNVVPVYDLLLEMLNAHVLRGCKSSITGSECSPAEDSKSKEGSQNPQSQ
Sequence of Intestinal-type alkaline phosphatase (Mus musculus, UniProt P24822) (P24822 whole entry): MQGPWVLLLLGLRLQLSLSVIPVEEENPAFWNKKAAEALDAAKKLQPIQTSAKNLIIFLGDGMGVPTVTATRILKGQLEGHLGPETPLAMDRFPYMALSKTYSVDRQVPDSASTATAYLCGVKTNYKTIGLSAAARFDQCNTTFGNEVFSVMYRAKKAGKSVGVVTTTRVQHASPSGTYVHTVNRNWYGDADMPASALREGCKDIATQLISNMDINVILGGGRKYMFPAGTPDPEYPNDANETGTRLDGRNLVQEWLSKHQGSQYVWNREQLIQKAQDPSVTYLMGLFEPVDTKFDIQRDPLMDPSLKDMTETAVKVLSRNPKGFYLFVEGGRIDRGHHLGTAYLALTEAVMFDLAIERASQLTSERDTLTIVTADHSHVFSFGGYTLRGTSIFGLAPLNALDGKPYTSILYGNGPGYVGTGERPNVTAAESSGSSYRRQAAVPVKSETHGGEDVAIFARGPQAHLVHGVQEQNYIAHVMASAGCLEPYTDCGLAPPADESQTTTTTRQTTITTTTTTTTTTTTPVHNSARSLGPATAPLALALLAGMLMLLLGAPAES
Sequence of Beta Lactamase (Q932Y6 whole entry): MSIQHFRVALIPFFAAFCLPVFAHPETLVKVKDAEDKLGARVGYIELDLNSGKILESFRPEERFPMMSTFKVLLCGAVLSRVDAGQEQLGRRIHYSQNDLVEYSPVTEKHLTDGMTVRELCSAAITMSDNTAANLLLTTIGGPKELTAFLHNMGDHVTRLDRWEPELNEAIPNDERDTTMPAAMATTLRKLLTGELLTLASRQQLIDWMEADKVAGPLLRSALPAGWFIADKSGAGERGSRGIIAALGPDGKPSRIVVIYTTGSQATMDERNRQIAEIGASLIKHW
Sequence of Glyceraldehyde-3-phosphate dehydrogenase (P04406 whole entry): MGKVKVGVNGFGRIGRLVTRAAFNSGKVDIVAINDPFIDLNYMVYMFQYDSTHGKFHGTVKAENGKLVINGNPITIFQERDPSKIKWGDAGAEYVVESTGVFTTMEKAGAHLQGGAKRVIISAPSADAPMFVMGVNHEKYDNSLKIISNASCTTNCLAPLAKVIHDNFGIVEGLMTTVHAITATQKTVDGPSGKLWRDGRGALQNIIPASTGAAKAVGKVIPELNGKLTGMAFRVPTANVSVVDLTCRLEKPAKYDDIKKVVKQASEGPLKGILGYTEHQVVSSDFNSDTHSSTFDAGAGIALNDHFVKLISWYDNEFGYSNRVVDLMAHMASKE

Row | Structure (SMILES) | IC50 [1] | IC50 (Bcl-2-like protein 10) | IC50 [2] | IC50 (Estrogen receptor beta [3]) | IC50 (Estrogen receptor beta [4]) | IC50 [5] | IC50 [6] | IC50 [7] | IC50 (CHO) | EC50 [8] | IC50 (Beta Lactamase) | EC50 [9] | IC50 [10] | IC50 [11] | IC50 [12] | IC50 [13] | AC50 [14] | AC50 [15]
1 | CCCCCc1nnc(NC(=O)Cc2cccs2)s1 | 6.28 µM (active) | 12.5 µM (active) | 98.6 µM (active) | < 1.56 µM (active) | > 50 µM (not active) | 21.4 µM (active) | 17.2 µM (active) | 3.73 µM (active) | – | – | – | – | – | – | – | – | – | –
2 | CC1C/C(=C/c2cccn2C)C(=O)/C(=C/c2cccn2C)C1 (stereo not given) | – | – | – | – | – | – | – | – | > 49.7 µM (inactive) | > 99 µM (inactive) | 4.39 µM (active) | > 99 µM (inactive) | – | – | – | – | – | –
3 | CC(C)=CCc1c(O)ccc2c1OC(c1ccc(O)c(O)c1)CC2=O (stereo not given) | – | – | – | – | – | – | – | – | – | > 99 µM (inactive) | – | > 99 µM (inactive) | 11.5 µM (active) | 1.97 µM (active) | 6.64 µM (active) | 88.8 µM (active) | 11.7 µM (active) | 3.68 µM (active)
